Reference: patent publication US20230235036A1, “ACVR1 (ALK2) RECEPTOR INHIBITION TO TREAT NEUROLOGICAL DISEASES” (The J. David Gladstone Institutes, a testamentary trust …, priority 2020, published 2023)
Entries after “also recorded” stand apart in the source; their conditions may differ. Like-named read-outs stand apart in the source and are kept apart here.

Experiments:
primary rat OPCs = assay: OPC-X-screen: OPC differentiation to MBP+ OLs or GFAP+ astrocytes in presence of fibrinogen; format: cell-based; conditions: for cell-fate switch of OPCs to GFAP+ cells by fibrinogen: fibrinogen-treated OPCs, clemastine 1 μM; for cell-fate switch of OPCs to GFAP+ cells by fibrinogen / OPC differentiation to mature MBP+ OLs under extrinsic inhibition by fibrinogen: DMH1 1 μM; for OPC differentiation to mature MBP+ OLs under extrinsic inhibition by fibrinogen: myelin-promoting compound screen, fibrinogen 1.5 mg/ml, benztropine, clemastine, quetiapine, miconazole, (±)U-50488 1 μM, clobetasol 5 μM, XAV-939 0.1 μM
Water solubility = format: physicochemical
[1] = test system: BMP signaling (P-SMAD1/5, ID2) in primary rat OPCs; assay: Immunoblot of phospho-SMAD1/5 and ID2 in fibrinogen-treated OPCs; format: cell-based
Protocol: Cells or tissue were lysed in RIPA lysis buffer (Thermo Fisher Scientific) supplemented with protease/phosphatase inhibitor cocktails (Calbiochem) and lysates were cleared by centrifuging at 13,000×g for 15 minutes at 4° C. Equal amounts of protein were loaded in […] bis-tris gels (Thermo Fisher Scientific) and analyzed by western blotting. Bands were visualized with HRP-conjugated secondary antibodies (Cell Signaling Technology). Densitometry was performed using ImageJ Software (NIH) with values for each band normalized to GAPDH loading controls from the same membrane. Primary antibodies were: Id2 (1:1000, rabbit monoclonal, #M213, CalBioreagents); phospho-Smad1/5 (1:1000, rabbit monoclonal, #9516, Cell Signaling Technology); GAPDH (1:1000, rabbit monoclonal, #2118, Cell Signaling Technology)

NOD-MOG35-55 EAE mice = assay: Progressive NOD-MOG35-55 EAE, therapeutic treatment; format: in vivo, mouse
[2] = test system: NG2-CreER™:Rosa^tdTomato/+ MOG35-55-EAE mice; conditions: vs saline
PLP-EAE = assay: In vivo PLP-EAE
[3] = LDN-212854 dose response 5 μM to 2 nM, fibrinogen 2.5 mg/ml, 3 days
[4] = in vivo 2P imaging at chronic EAE
[5] = fibrinogen alone vs control, OPC-X assay

CC(C)Oc1ccc(-c2cnc3c(-c4ccnc5ccccc45)cnn3c2)cc1 [DMH1]
cell-fate switch of OPCs to GFAP+ cells by fibrinogen (primary rat OPCs; 3 days): abolished
OPC differentiation to mature MBP+ OLs under extrinsic inhibition by fibrinogen (primary rat OPCs; 3 days): restored OPC differentiation to mature OLs to control levels
water solubility (Water solubility): not water-soluble
fibrinogen-induced expression of BMP target protein ID2 [1]: blocked
fibrinogen-induced phosphorylation of SMAD1/5 [1]: blocked

c1cc(-c2cnn3cc(-c4ccc(N5CCNCC5)cc4)cnc23)c2cccnc2c1 [LDN-212854]
demyelination in spinal cord (NOD-MOG35-55 EAE mice; 30 days treatment, vs saline): reduced
fibrinogen deposition in spinal cord (NOD-MOG35-55 EAE mice; 30 days treatment, vs saline): reduced
clinical scores (NOD-MOG35-55 EAE mice; treated for 30 days, vs saline): significantly improved
group mean of maximum clinical scores (NOD-MOG35-55 EAE mice; treated for 30 days, maximum scores from the last 20 days of treatment, five-point scale): 1.75
formation of GFAP+ astrocytes from fibrinogen-treated OPCs (primary rat OPCs; [3]): blocked the formation of GFAP+ astrocytes
mature OL (MBP+) differentiation from fibrinogen-treated OPCs (primary rat OPCs; [3]): enhanced formation of mature oligodendrocytes; also recorded: restored mature OL differentiation
clinical scores ([2]; 6 mg/kg twice daily for 14 days starting at peak disease): significantly improved
ID2 expression in NG2 cells in the EAE white matter ([2]; 14 day treatment): decreased
demyelination in spinal cord ([2]; 14 days treatment): reduced
fibrinogen deposition in spinal cord ([2]; 14 days treatment): reduced
myelin damage (myelin circularity) [2, 4]: markedly reduced
perivascular NG2 clusters [2, 4]: markedly reduced
water solubility (Water solubility): water soluble; also recorded: water-soluble
clinical scores (PLP-EAE): improved
spinal cord Id2 protein levels (PLP-EAE): reduced

Oc1nc(-c2ccc(C(F)(F)F)cc2)nc2c1CSCC2 [XAV-939]
OPC differentiation to mature MBP+ OLs under extrinsic inhibition by fibrinogen (primary rat OPCs; 3 days): did not overcome extrinsic inhibition of OPC differentiation by fibrinogen

CN1[C@@H]2CC[C@H]1C[C@@H](OC(c1ccccc1)c1ccccc1)C2 [benztropine]
OPC differentiation to mature MBP+ OLs under extrinsic inhibition by fibrinogen (primary rat OPCs; 3 days): did not overcome extrinsic inhibition of OPC differentiation by fibrinogen

CN1CCC[C@@H]1CCO[C@](C)(c1ccccc1)c1ccc(Cl)cc1 [clemastine]
OPC differentiation to mature OLs in the presence of fibrinogen (primary rat OPCs; clemastine dose-response, fibrinogen 2.5 mg/ml, differentiation media without T3 or growth factors, 3 days): did not enhance
cell-fate switch of OPCs to GFAP+ cells by fibrinogen (primary rat OPCs; 3 days): did not inhibit SMAD1/5 phosphorylation, a key pathway downstream of BMP receptor activation, or rescue
number of MBP+ cells in control conditions (primary rat OPCs; no fibrinogen, differentiation media without T3 or growth factors, 3 days): increased
fibrinogen-induced expression of BMP target protein ID2 [1]: did not block
fibrinogen-induced phosphorylation of SMAD1/5 [1]: did not inhibit
fibrinogen-induced phosphorylation of SMAD1/5 ([1]; listed as Clemastine): did not block

C[C@H]1C[C@H]2[C@@H]3CCC4=CC(=O)C=C[C@]4(C)[C@@]3(F)[C@@H](O)C[C@]2(C)[C@@]1(O)C(=O)CCl [clobetasol]
OPC differentiation to mature MBP+ OLs under extrinsic inhibition by fibrinogen (primary rat OPCs; 3 days): did not overcome extrinsic inhibition of OPC differentiation by fibrinogen

Clc1ccc(COC(Cn2ccnc2)c2ccc(Cl)cc2Cl)c(Cl)c1 (stereo not drawn) [miconazole]
OPC differentiation to mature MBP+ OLs under extrinsic inhibition by fibrinogen (primary rat OPCs; 3 days): did not overcome extrinsic inhibition of OPC differentiation by fibrinogen

OCCOCCN1CCN(C2=Nc3ccccc3Sc3ccccc32)CC1 [quetiapine]
OPC differentiation to mature MBP+ OLs under extrinsic inhibition by fibrinogen (primary rat OPCs; 3 days): did not overcome extrinsic inhibition of OPC differentiation by fibrinogen

fibrinogen
decrease of MBP+ mature OLs as compared to controls (primary rat OPCs; [5]): ~60%
increase of GFAP+ astrocyte-like cells as compared to controls (primary rat OPCs; [5]): ~60%
